Source: US20250320227A1, “MACROCYCLIC OREXIN RECEPTOR AGONISTS AND USES THEREOF” (Jazz Pharmaceuticals Ireland Limited, priority 2022, published 2025)

Biological target: T1, human recombinant OX2 (hOX2) receptors expressed in CHO cells (Homo sapiens, UniProt O43614)
T1 construct: host or cells: CHO cells (hOX2-CHO)
T1 sequence (O43614 1-444): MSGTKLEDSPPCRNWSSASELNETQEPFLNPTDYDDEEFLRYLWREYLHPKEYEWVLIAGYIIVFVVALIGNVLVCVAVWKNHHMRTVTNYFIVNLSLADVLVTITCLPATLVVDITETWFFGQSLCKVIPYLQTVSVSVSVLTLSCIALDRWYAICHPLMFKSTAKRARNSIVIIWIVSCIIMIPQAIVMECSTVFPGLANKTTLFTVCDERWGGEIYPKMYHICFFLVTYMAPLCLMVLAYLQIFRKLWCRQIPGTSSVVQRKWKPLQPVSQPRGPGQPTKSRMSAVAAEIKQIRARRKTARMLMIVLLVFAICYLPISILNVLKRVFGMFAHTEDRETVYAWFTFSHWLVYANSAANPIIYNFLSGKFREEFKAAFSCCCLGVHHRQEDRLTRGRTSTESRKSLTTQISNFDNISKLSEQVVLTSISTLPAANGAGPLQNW
Assay: IP-1 accumulation assay (IP-One HTRF) in hOX2-CHO cells
Format: cell-based
Conditions: 60 min incubation at 37° C., mean of at least two independent experiments, read-out: EC50_OX2R Category
In short: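 IP-1 HTRF (665/615 ratio) after 60 min compound exposure at 37 °C, 11-point dilution, 0.5% DMSO, LiCl-containing HEPES-buffered HBSS pH 7.4. Response expressed as percent of maximal OX-A effect; EC50 by four-parameter logistic fit, averaged over at least two independent experiments in duplicate.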

Row | Compound | EC50 [nM]
1 | CC1CC2(COCC(=O)N2)C2COC3CCC(CC3)c3ccncc3OCCC(=O)N12 (single isomer, unassigned) [Example 74] | < 100
2 | CC1CC2(COCC(=O)N2)C2COC3CCC(CC3)c3ccncc3OCCC(=O)N12 (single isomer, unassigned) [Example 75] | > 10000
3 | CC1COc2ccccc2[C@H]2CC[C@H](CC2)OCC2N(CCC23COCC(=O)N3)C1=O (stereo partly drawn) [Example 5, (1′s,3S,16′R,19′s)-10′-methyl-8′,18′-dioxa-12′-azaspiro[morpholine-3,15-′tetracyclo[17.2.2.0^2,70.0^12,16]tricosane]-2′(7′), 3′,5′-triene-5, 11′-dione] | 100 to 1000
4 | C[C@@H]1C[C@@]2(COCC(=O)N2)[C@@H]2CO[C@H]3CC[C@H](CC3)c3ccccc3OCC(=O)N12 [Example 12a, (1′s,3S,12′R,15′R,18′s)-12′-methyl-8′,17′-dioxa-11′-azaspiro[morpholine-3,14′-tetracyclo[16.2.2.0^2,70.0^11,15]docosane]-2′(7′),3′,5′-triene-5,10′-dione] | < 100
5 | C[C@@H]1C[C@]2(COCC(=O)N2)[C@H]2CO[C@H]3CC[C@H](CC3)c3ccccc3OCC(=O)N12 [Example 12b, (1′s,3R,12′R,15′S, 18′s)-12′-methyl-8′,17′-dioxa-11′-azaspiro[morpholine-3,14′-tetracyclo[16.2.2.0^2,70.0^11,15]docosane]-2′(7′),3′,5′-triene-5,10′-dione] | 100 to 1000
6 | O=C1COCC2(CCCN3C(=O)COc4ccccc4[C@H]4CC[C@H](CC4)OCC32)N1 (stereo partly drawn) [Example 32, Rel-(1′s,3S,16′R,19′s)-8′,18′-dioxa-11′-azaspiro[morpholine-3, 15′-tetracyclo-[17.2.2.0^2,70.0^11,16]tricosane]-2′(7′),3′,5′-triene-5,10′-dione] | < 100
7 | O=C1COCC2(CCCN3C(=O)CCOc4ccccc4[C@H]4CC[C@H](CC4)OCC32)N1 (stereo partly drawn) [Example 33, Rel-(1′s,3S,17′R,20's)-8′,19′-dioxa-12′-azaspiro[morpholine-3,16′-tetracyclo-[18.2.2.0^2,70.0^12,17]tetracosane]-2′(7′),3′,5′-triene-5,11′-dione] | < 100
8 | O=C1COCC2(CCCN3C(=O)CCCOc4ccccc4[C@H]4CC[C@H](CC4)OCC32)N1 (stereo partly drawn) [Example 34, Rel-(1′s,3S,18′R,21′s)-8′,20′-dioxa-13′-azaspiro[morpholine-3,17′-tetracyclo[19.2.2.0^2,70.0^13,18]pentacosane]-2′(7′),3′,5′-triene-5,12′-dione] | < 100
9 | CC1Oc2ccccc2[C@H]2CC[C@H](CC2)OCC2N(CCCC23COCC(=O)N3)C1=O (stereo partly drawn) [Example 35, Rel-(1′s,3S,16′R,19′s)-9′-methyl-8′,18′-dioxa-11′-azaspiro[morpholine-3, 15′-tetracyclo[17.2.2.0^2,70.0^11,16]tricosane]-2′(7′),3′,5′-triene-5,10′-dione] | < 100
10 | CC1(C)Oc2ccccc2[C@H]2CC[C@H](CC2)OCC2N(CCCC23COCC(=O)N3)C1=O (stereo partly drawn) [Example 36, Rel-(1′s,3S,16′R,19′s)-9′,9′-dimethyl-8′,18′-dioxa-11′-azaspiro[morpholine-3,15′-tetracyclo[17.2.2.0^2,70.0^11,16]tricosane]-2′(7′),3′,5′-triene-5,10′-dione] | 100 to 1000
11 | O=C1COCC2(CCCN3C(=O)C4(CC4)COc4ccccc4[C@H]4CC[C@H](CC4)OCC32)N1 (stereo partly drawn) [Example 37, Rel-(1′s,16′S,17′R,20's)-dispiro[cyclopropane-1,10′-[8,19]dioxa-[12]azatetracyclo[18.2.2.0^2,70.0^12,17]tetracosane-16′,3″-morpholine]-2′(7′),3′,5′-triene-5″,11′-dione] | < 100
12 | O=C1COCC2(CCCN3C(=O)COc4ccc(F)cc4[C@H]4CC[C@H](CC4)OCC32)N1 (stereo partly drawn) [Example 41, Rel-(1′s,3S,16′R,19′s)-4′-fluoro-8′,18′-dioxa-11′-azaspiro[morpholine-3,15′-tetracyclo[17.2.2. 0^2,^7.0^11,^16]tricosane]-2′(7′),3′,5′-triene-5,10′-dione] | < 100
13 | O=C1COCC2(CCCN3C(=O)COc4ncccc4[C@H]4CC[C@H](CC4)OCC32)N1 (stereo partly drawn) [Example 45, Rel-(1′s,3S,16′R,19′s)-8′,18′-dioxa-6′,11′-diazaspiro [morpholine-3,15′-tetracyclo[17.2.2. 0^2,^7.0^11,^16]tricosane]-2′(7′),3′,5′-triene-5,10′-dione] | < 100
14 | Cc1cccc2c1[C@H]1CC[C@H](CC1)OCC1N(CCCC13COCC(=O)N3)C(=O)CO2 (stereo partly drawn) [Example 47, Rel-(1′s,3S,16′R,19′s)-3′-methyl-8′,18′-dioxa-11′-azaspiro[morpholine-3,15′-tetracyclo[17.2.2. 0^2,^7.0^11,^16]tricosane]-2′(7′),3′,5′-triene-5,10′-dione] | < 100
15 | O=C1COCC2(CCCN3C(=O)COCc4ccccc4[C@H]4CC[C@H](CC4)OCC32)N1 (stereo partly drawn) [Example 55, Rel-(1′s,3S,17′R,20's)-9′,19′-dioxa-12′-azaspiro[morpholine-3,16′-tetracyclo[18.2.2.0^2,70.0^12,17]tetracosane]-2′(7′),3′,5′-triene-5,11′-dione] | 1000 to 10000
16 | O=C1CCOc2ccccc2[C@H]2CC[C@H](CC2)OCC2N1CCCC21CCCS(=O)(=O)N1 (stereo partly drawn) [Example 60, Rel-(1s, 16R,17R,20s)-8,19-dioxa-12-azaspiro[tetracyclo[18.2.2.0^2,70.0^12,17]tetracosane-16,3′-[1λ^6,2]thiazinane]-2 (7),3,5-triene-1′,1′,11-trione] | 100 to 1000
17 | O=C1COCC2(CCCN3C(=S)COc4ccccc4[C@H]4CC[C@H](CC4)OCC32)N1 (stereo partly drawn) [Example 66, Rel-(1′s,3S,16′R,19′s)-10′-sulfanylidene-8′,18′-dioxa-11′-azaspiro[morpholine-3,15′-tetracyclo[17.2.2.0^2,70.0^11,16]tricosane]-2′(7′),3′,5′-trien-5-one] | 1000 to 10000

The remaining lines, values ahead:

Row | EC50 [nM] | Compound
18 | 1000 to 10000 | O=C1COC[C@]2(CCN3C(=O)C4(CC4)COc4cccc(F)c4[C@H]4CC[C@H](CC4)OC[C@@H]32)N1 (single isomer, unassigned) [Example 73a, (1′s,15′R,16′S,19′s)-3′-fluorodispiro [cyclopropane-1,10′-[8,18]dioxa-[12]azatetracyclo[17. 2.2.0^2,^7.0^12,^16]tricosane-15′,3″- morpholine]-2′,4′,6′-triene-5″,11′-dione]
19 | > 10000 | O=C1COC[C@@]2(CCN3C(=O)C4(CC4)COc4cccc(F)c4[C@H]4CC[C@H](CC4)OC[C@H]32)N1 (single isomer, unassigned) [Example 73b, (1′s,15′S,16′R,19′s)-3′-fluorodispiro [cyclopropane-1,10′-[8,18]dioxa-[12]azatetracyclo [17.2.2.0^2,^7.0^12,^16]tricosane-15′,3″- morpholine]-2′,4′,6′-triene-5″,11′-dione]
20 | > 10000 | O=C1COC[C@]2(CCCN3C(=O)CCCCOc4cccc(n4)[C@H]4CC[C@H](CC4)OC[C@@H]32)N1 (single isomer, unassigned) [Example 76a]
21 | < 100 | O=C1COC[C@@]2(CCCN3C(=O)CCCCOc4cccc(n4)[C@H]4CC[C@H](CC4)OC[C@H]32)N1 (single isomer, unassigned) [Example 76b]
22 | > 10000 | C[C@@H]1C[C@]2(COCC(=O)N2)[C@H]2CO[C@H]3CC[C@H](CC3)c3ccc(F)cc3OCC(=O)N12 [Example 19b, (1′s,3R,12′R,15′S, 18′s)-5′-fluoro-12′-methyl-8′,17′-dioxa-11′-azaspiro[morpholine-3,14′-tetracyclo [16.2.2.0^2,^7.0^11,^15]docosane]-2′,4′,6′-triene-5,10′-dione]
23 | < 100 | C[C@@H]1C[C@@]2(COCC(=O)N2)[C@@H]2CO[C@H]3CC[C@H](CC3)c3cc(F)cc(F)c3OCCC(=O)N12 [Example 25a, (1′s,3S,13′R,16′R, 19′s)-4′,6′-difluoro-13′-methyl-8′,18′-dioxa-12′-azaspiro[morpholine-3,15′-tetracyclo[17.2.2. 0^2,^7.0^12,^16]tricosane]-2′,4′,6′-triene-5,11′-dione]
24 | < 100 | C[C@@H]1C[C@]2(COCC(=O)N2)[C@H]2CO[C@H]3CC[C@H](CC3)c3cc(F)cc(F)c3OCCC(=O)N12 [Example 25b, (1′s,3R,13′R,16′S, 19′s)-4′,6′-difluoro-13′-methyl-8′,18′-dioxa-12′-azaspiro[morpholine-3,15′-tetracyclo[17.2.2. 0^2,^7.0^12,^16]tricosane]-2′,4′,6′-triene-5,11′-dione]
25 | > 10000 | O=C1COC[C@]2(CCCN3C(=O)COc4ncccc4[C@H]4CC[C@H](CC4)OC[C@@H]32)N1 [Example 45b, (1′s,3R,16′S,19′s)-8′,18′-dioxa-6′,11′-diazaspiro [morpholine-3,15′-tetracyclo[17.2.2. 0^2,^7.0^11,^16]tricosane]-2′(7′),3′,5′-triene-5,10′-dione]
26 | < 100 | Cc1ccnc2c1C1CCC(CC1)OCC1N(CCCC13COCC(=O)N3)C(=O)CO2 [Example 77a, (1′s,3S,16′R,19′s)-3′-methyl-8′,18′-dioxa-6′,11′-diazaspiro[morpholine-3,15′-tetracyclo[17.2.2.0^2,70.0^11,16]tricosane]-2′,4′,6′-triene-5,10′-dione]
